Assay results as given in US10045972B2, “Hydroxypyridone derivatives, pharmaceutical compositions thereof, and their therapeutic use for treating inflammatory, neurodegenerative, or immune-mediated diseases” (BioTheryX, Inc., priority 2014, dated 2018).
“Also recorded” adds a separate entry of the source.

Assays:
[1] = tested on: TNF-α secretion from human primary glioblastoma cells (U87); assay: Reduction of TNF-α secretion from U87 cells (slot blot of conditioned media); format: cell-based; details: compound at 10 μM, 48 hrs, FIG. 1
Procedure: TNF-α secretion was measured using U87 cell line. Cells were distributed into 6 well dishes and allowed to adhere overnight. When cells were confluent, they were treated with 6-cyclohexyl-1-hydroxy-4-methyl-1H-pyridine-2-thione A1 at 10 μM in each dish, wherein compound A1 was solubilized in neat DMEM. Cells were exposed to the compound for 48 hrs. Conditioned media was collected and assayed for TNF-α using mouse monoclonal to TNF-α (Abcam 52B83, Cambridge, Mass.). Conditioned media (100 μL) was applied to each slot. The nitrocellulose filter membrane was blocked with ECL advanced block (2% in Tris buffered saline with Tween-20 (0.05%)) for 1 hr with gentle shaking at room temperature. Primary mouse anti-TNF-α (Abcam 52B83) was diluted 1,000× in the blocking solution. Primary antibodies were applied to blots and incubated overnight at 4° C. with gentle shaking. Blots were developed using enhanced ECL (GE Healthcare) method. Images of bound antibodies were captured using Image Lab software driving a Bio-Rad ChemiDoc XRS+ image capture system.

[2] = tested on: primary mouse oligodendrocytes; assay: Protection from cuprizone toxicity, primary mouse oligodendrocytes, MITOTRACKER and immunocytochemistry; format: cell-based; details: MITOTRACKER (red) and beta-catenin (green), FIG. 6
Procedure: (§1) Stock MITOTRACKER® (Molecular Probes) was diluted with DMSO to a final concentration of 1 mM. MITOTRACKER® (100 nM) was incubated with the live cells at 37° C. for 30 min. MITOTRACKER® labeling of mitochondria was assessed using a Zeiss inverted microscope. Following MITOTRACKER® treatment, cells were processed for immunocytochemistry. Cells grown on mouse oligodendrocyte extracellular matrix coated cover slips (Celprogen) were fixed with fixing solution containing 0.1% gluteraldehyde, 2% paraformaldehyde, 80 mM Pipes, 5 mM EGTA, pH 8.0, 1 mM MgCl2, and 0.5% Triton-X100. The cells were fixed for 7 min at 37° C. The cells on cover slips were washed and then blocked with 2% bovine serum albumin (BSA) for 1 hr. Primary antibodies were diluted in 2% BSA and incubated on the cover glass for 1 hr in a humid chamber. Following incubation, cover slips were washed and then incubated for 1 hr with species-specific secondary antibodies conjugated with fluorescent label or with biotin. After washing, slides were incubated with streptavidin conjugated with fluorescein fluorescent labels for 40 min. Cover slips were washed again and mounted with DABCO mountant. Fluorescently labeled cells were visualized with a Zeiss epi-fluorescent microscope. Data collected was for MITOTRACKER® (red channel) and beta-catenin (green channel).

[3] = tested on: human oligodendrocytes (MO3-13); assay: TNF-α toxicity on MO3-13 cells and protection (Trypan blue cell counts); format: cell-based; details: cells exposed to LD50 human TNF-α protein, FIG. 2
Procedure: MO3-13 cells were grown in 6 well dishes (100,000 cells per dish) and allowed to adhere overnight. Cells were treated with increasing amounts of human recombinant TNF-α protein (Abcam Ab9642). Cells either treated with increasing amounts of TNF-α protein or with vehicle (PBS) were allowed to grow for additional 24 hrs, after which MO3-13 cells were trypsinized and counted using Trypan blue and a Nebauer hemocytometer. Mean cell counts were plotted graphically against TNF-α concentrations. The LD50 of human TNF-α was determined to be 30 ng/mL on MO3-13 cells. The protective effects of compound A1 on MO3-13 cells that were exposed to LD50 human TNF-α protein were then determined and the results are shown in FIG. 2.

[4] = tested on: primary human oligodendrocytes; assay: Protection from cuprizone toxicity, primary human oligodendrocytes, MITOTRACKER and immunocytochemistry; format: cell-based; details: MITOTRACKER (red), green channel, nuclei (blue), FIGS. 8 and 9
Procedure: as §1, with “MITOTRACKER®” for “Stock MITOTRACKER® (Molecular Probes) was diluted with DMSO to a final concentration of 1 mM. MITOTRACKER®”, “human” for “mouse”, “MBP” for “beta-catenin”, “channel). Nuclei are labeled with DAPI (blue channel).” for “channel).”

[5] = tested on: primary human oligodendrocytes; assay: Protection from cuprizone toxicity, primary human oligodendrocytes, live cell images; details: 24 hrs, FIG. 7
Procedure: Cells were weaned off with fetal bovine serum containing differentiation medium (Celprogen) up to 25 days in culture. The cells were exposed to either no treatment (Vehicles=ethanol and DMSO); compound A1 ranging in dosage of 2, 5 and 10 μM; cuprizone (50 μM) (Sigma Aldrich) or a combination of compound A1 and cuprizone (50 μM). Cells were treated for 24 hrs, after which images were captured of live cells using an inverted Zeiss microscope.

MO3-13 cells [6] = assay: Protection of MO3-13 cells from cuprizone toxicity (phase contrast); format: cell-based, human; details: compound 5 μM, cuprizone 50 μM, 24 hrs, FIG. 5
Procedure: The protective effects of compound A1 on MO3-13 cells from cuprizone toxicity was then determined. […] Cuprizone at a final concentration of 50 μM was solubilized in 100% ethanol was added to selected dishes with and without compound A1 (5 μM) in DMSO.

[7] = tested on: myelin basic protein (MBP) in MO3-13 cells; assay: Induction of myelin basic protein (MBP) production in MO3-13 cells (slot blot, anti-MBP); format: cell-based, human
Procedure: Dilutions (0.1 mg/mL) of MO3-13 whole cell extracts were prepared and the proteins (5 μg) from the dilutions were blotted onto nitrocellulose membrane using a slot blotter. The non-protein sites on the blot were blocked with 2% ECL block in PBS-Tween20. Primary […] was diluted in block solution at 300×. The primary antibody was incubated overnight at 4° C. with gentle shaking. The following day the blot was developed using enhanced ECL (GE Healthcare) method. Image of bound antibody were captured using Image Lab software driving a Bio-Rad ChemiDoc XRS+ image capture system.

MO3-13 cells [8] = assay: Protection of differentiated MO3-13 cells against TNF-α toxicity (Kinetic Apoptosis Kit, live cell fluorescence microscopy); format: cell-based; details: 1 μM ciclopirox with human TNF-α protein 30 ng/mL; images after 1, 15 and 72 hrs, FIG. 3
Procedure: The protective effects of ciclopirox on MO3-13 cells against TNF-α toxicity was also determined. MO3-13 cells were grown in 6 well dishes and allowed to adhere overnight. Cells were grown to 70% confluence and then differentiated into oligodendrocyte-like cells by removal of FBS from DMEM medium for 48 hrs. Cells were treated with vehicle (no treatment); human TNF-α protein (30 ng/mL); 1 μM ciclopirox; and a combination of 1 μM ciclopirox and human TNF-α protein (30 ng/mL). Cells were treated with Abcam's Kinetic Apoptosis Kit (Microscopy) prior to live cell fluorescence microscopy imaging using an inverted Zeiss epi-fluorescent microscope. Merged images of phase contrast, green (pSIVA-IANBD) and red (PI) fluorescence were captured after 1 hr, 15 and 72 hrs in cell culture.

## Cc1cc(C2CCCCC2)n(O)c(=S)c1 [compound A1, 6-cyclohexyl-1-hydroxy-4-methyl-1H-pyridine-2-thione]
[1]
  reduction of TNF-α secretion: reduction of TNF-α secretion
[2]
  protection of primary mouse oligodendrocytes against cuprizone toxicity: protection
[3]
  protection of MO3-13 cells against TNF-α toxicity: protection
[4]
  protection of primary human oligodendrocytes against cuprizone toxicity: protection
[5]; compound 2, 5 and 10 μM with cuprizone 50 μM, live cell images
  protection of primary human oligodendrocytes against cuprizone toxicity: protection; also recorded: appears to be protective at various dosings
MO3-13 cells [6]
  protection of MO3-13 cells against cuprizone toxicity: protection
[7]; MO3-13 cells treated with Cpz and compound, p<0.001, FIG. 10
  MBP bound by anti-MBP (induction of MBP production): induction of myelin basic protein (MBP) production; also recorded: significantly higher
[7]; MO3-13 cells treated with compound alone, p<0.001, FIG. 10
  MBP bound by anti-MBP: significantly higher

## Cc1cc(C2CCCCC2)n(O)c(=O)c1 [ciclopirox]
MO3-13 cells [8]
  protection of MO3-13 cells against TNF-α toxicity: protection; also recorded: protective up to 72 hrs

## O=C(NN=C1CCCCC1)C(=O)NN=C1CCCCC1 [cuprizone, reference compound]
[5]; cuprizone 50 μM alone
  toxicity of cuprizone to primary human oligodendrocytes: toxic
[7]; MO3-13 cells treated with Cpz alone, FIG. 10
  anti-MBP antibody binding compared with non-treated (NT) cells: reduced anti-MBP antibody binding
